Data from paper PMC7150989 (Viruses, 2020).
Like-named read-outs stand apart in the source and are kept apart here.

What was measured:
[1] = test system: A/Duck/Guangdong/212/2004 (H5N1) virus; assay: microbe, parasite or virus in culture; type: cell-based, H5N1 avian influenza virus
MDCK cells = settings: dog
H5N1 virus neuraminidase = H5N1 virus neuraminidase (Influenza A virus, UniProt Q9Q0U7); assay: biochemical; settings: for inhibition at 6.25 µM / inhibition at 12.5 µM / inhibition at 25 µM / inhibition at 50 µM / inhibition at 100 µM / inhibition at 200 µM / inhibition at 400 µM: read-out: The neuraminidase inhibitory rate (%)
Sequence of H5N1 virus neuraminidase (Q9Q0U7 whole entry, looked up): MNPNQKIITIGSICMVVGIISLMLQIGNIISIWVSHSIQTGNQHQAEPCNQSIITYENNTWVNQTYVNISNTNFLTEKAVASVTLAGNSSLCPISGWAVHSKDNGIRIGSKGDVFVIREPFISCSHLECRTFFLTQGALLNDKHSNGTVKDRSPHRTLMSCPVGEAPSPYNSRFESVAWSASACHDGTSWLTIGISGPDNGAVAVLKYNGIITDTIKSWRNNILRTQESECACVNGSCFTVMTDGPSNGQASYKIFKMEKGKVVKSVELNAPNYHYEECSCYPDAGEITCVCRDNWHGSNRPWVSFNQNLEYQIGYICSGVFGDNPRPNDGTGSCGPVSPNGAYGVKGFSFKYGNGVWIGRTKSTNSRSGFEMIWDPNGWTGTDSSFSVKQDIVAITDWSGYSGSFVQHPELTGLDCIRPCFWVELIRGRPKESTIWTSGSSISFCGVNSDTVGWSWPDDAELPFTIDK

[2] = test system: A/Vietnam/1203/2004(H5N1) and A/Goose/Qinghai/59/05(H5N1) pseudotyped viral entry; settings: read-out: IC50 against pseudotyped viral entry; cited from earlier work
H5N1 virus = assay: microbe, parasite or virus in culture; type: cell-based, H5N1 avian influenza virus; settings: Influenza A virus
[3] = test system: wild-type A/Thailand/kan353/2004 (H5N1) pseudo-typed virus; assay: microbe, parasite or virus in culture; type: cell-based, H5N1 pseudovirus; settings: Influenza A virus, H5N1, MDCK; for inhibition at 1.56 µM / inhibition at 3.13 µM / inhibition at 6.25 µM / inhibition at 12.5 µM / inhibition at 25 µM / inhibition at 50 µM / inhibition at 100 µM / inhibition at 200 µM: 48 h, read-out: inhibitory rates against pseudotyped virus, Wildtype Strain; for IC50: read-out: IC50 against H5N1 pseudovirus
VSVG pseudovirus = assay: microbe, parasite or virus in culture; type: cell-based, vesicular stomatitis virus (VSVG); settings: for inhibition at 1.56 µM / inhibition at 3.13 µM / inhibition at 6.25 µM / inhibition at 12.5 µM / inhibition at 25 µM / inhibition at 50 µM / inhibition at 100 µM / inhibition at 200 µM: Pseudovirus, MDCK, 48 h, read-out: inhibitory rates, VSVG pseudovirus group
[4] = test system: H5N1 virus HA1 (hemagglutination of chicken erythrocytes)
HA protein = HA protein (Influenza A virus, UniProt Q9Q0U6); assay: biochemical; type: binding, H5N1 virus
Sequence of HA protein (Q9Q0U6 17-568 limits assumed): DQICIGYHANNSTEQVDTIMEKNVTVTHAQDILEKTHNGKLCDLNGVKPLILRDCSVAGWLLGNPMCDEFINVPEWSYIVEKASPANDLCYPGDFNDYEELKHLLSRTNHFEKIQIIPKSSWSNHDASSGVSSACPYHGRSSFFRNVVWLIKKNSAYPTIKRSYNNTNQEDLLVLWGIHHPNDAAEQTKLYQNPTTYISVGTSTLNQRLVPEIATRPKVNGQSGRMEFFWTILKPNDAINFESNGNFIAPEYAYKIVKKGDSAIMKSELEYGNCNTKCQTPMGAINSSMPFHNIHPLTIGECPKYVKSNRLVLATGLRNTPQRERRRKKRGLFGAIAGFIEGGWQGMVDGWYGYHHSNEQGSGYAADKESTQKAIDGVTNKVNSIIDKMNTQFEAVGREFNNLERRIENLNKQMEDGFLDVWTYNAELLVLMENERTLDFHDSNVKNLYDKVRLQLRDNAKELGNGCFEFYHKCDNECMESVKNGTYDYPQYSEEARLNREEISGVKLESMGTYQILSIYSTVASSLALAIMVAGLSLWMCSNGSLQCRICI

in vitro = settings: dog
[5] = Influenza A virus, H5N1, MDCK, read-out: Inhibition rates to H5N1 virus (%)
[6] = H5N1, read-out: inhibition rate of viral plaques forming

CC1CCC2(OC1)OC1CC3C4CC(=O)C5CC(OC6OC(CO)C(OC7OC(C)C(O)C(O)C7O)C(O)C6OC6OC(C)C(O)C(O)C6O)CCC5(C)C4CCC3(C)C1C2C (stereo not drawn) [UA-Nu-ph-5]
Inhibition rates to H5N1 virus (%) ([1]; 0.39 µM): 0% | Inhibition rates to H5N1 virus (%) ([1]; 0.78 µM): 10.75±2.01% | Inhibition rates to H5N1 virus (%) ([1]; 1.56 µM): 10.78±3.11% | Inhibition rates to H5N1 virus (%) ([1]; 3.13 µM): 16.51±6.34% | Inhibition rates to H5N1 virus (%) ([1]; 50 µM): 65.30±4.73% | IC50 ([1]; Influenza A virus, H5N1, MDCK): 15.6 ± 2.4 µM | inhibition at 6.25 µM [1, 5]: 35 ± 10.8% | inhibition at 12.5 µM [1, 5]: 47.1 ± 1.63% | inhibition at 25 µM [1, 5]: 61.7 ± 5.4% | inhibition at 100 µM [1, 5]: 79.1 ± 3.27% | CC50 (MDCK cells): 127 ± 1.7 µM

CCC(CC)[C@H](NC(C)=O)[C@@H]1[C@H](O)[C@@H](C(=O)O)C[C@H]1N=C(N)N [peramivir, reference compound]
IC50 (H5N1 virus neuraminidase; read-out: IC50 against H5N1 viral NA): 0.668 nM

CC1CCC2(OC1)OC1CC3C4CC(O)C5CC(OC6OC(CO)C(OC7OC(C)C(O)C(O)C7O)C(O)C6OC6OC(C)C(O)C(O)C6O)CCC5(C)C4CCC3(C)C1C2C (stereo not drawn) [chlorogenin 3-O-β-chacotrioside]
IC50 [2]: 7.22 to 9.25 µM

CCOC(=O)C1=C[C@@H](OC(CC)CC)[C@H](NC(C)=O)[C@@H](N)C1 [Osetamivir, reference compound]
IC50 (H5N1 virus neuraminidase): 8.87 nM

CC1CCC2(OC1)OC1CC3C4CC(O)C5CC(OC6OC(CO)C(OC7OC(C)C(O)C(O)C7O)C(O)C6OC6OC(C)C(O)C(O)C6O)CCC5(C)C4CCC3(C)C1C2C (stereo not drawn) [XC-27-2]
IC50 ([1]; Influenza A virus, H5N1, MDCK): 12.5 ± 2.27 µM | inhibition at 0.39 µM [1, 5]: 31.9 ± 4.33% | inhibition at 0.78 µM [1, 5]: 38.6 ± 0.68% | inhibition at 1.56 µM [1, 5]: 41.5 ± 2.01% | inhibition at 3.13 µM [1, 5]: 47.1 ± 5.94% | inhibition at 6.25 µM [1, 5]: 55.6 ± 3.97% | inhibition at 12.5 µM [1, 5]: 62.2 ± 0.99% | inhibition at 25 µM [1, 5]: 71 ± 4.31% | inhibition at 50 µM [1, 5]: 96.8 ± 1.51% | inhibition at 40 µM (H5N1 virus; H5N1, read-out: inhibition percentage of H5N1 viral plaques forming amounts): 91% | inhibition at 40 µM (H5N1 virus; [6]): 96% | inhibition at 1.56 µM [3]: 26.8 ± 9.96% | inhibition at 3.13 µM [3]: 30.1 ± 12.2% | inhibition at 6.25 µM [3]: 35.8 ± 12.1% | inhibition at 12.5 µM [3]: 46.3 ± 6.37% | inhibition at 25 µM [3]: 47.4 ± 13.2% | inhibition at 50 µM [3]: 64.9 ± 12.5% | inhibition at 100 µM [3]: 90.5 ± 2.35% | inhibition at 200 µM [3]: 95.98 ± 0.68% | IC50 [3]: 18.5 ± 1.82 µM | inhibitory effects on the VSVG pseudovirus (VSVG pseudovirus): no inhibitory effects | inhibition at 1.56 µM (VSVG pseudovirus): 2.62 ± 4.57% | inhibition at 3.13 µM (VSVG pseudovirus): -3.39 ± 4.64% | inhibition at 6.25 µM (VSVG pseudovirus): 0.17 ± 5.78% | inhibition at 12.5 µM (VSVG pseudovirus): 1.54 ± 13.9% | inhibition at 25 µM (VSVG pseudovirus): 0.46 ± 0.94% | inhibition at 50 µM (VSVG pseudovirus): 0.34 ± 6.12% | inhibition at 100 µM (VSVG pseudovirus): 6.84 ± 5.83% | inhibition at 200 µM (VSVG pseudovirus): 6.52 ± 2.16% | inhibition activity on NA (in words) (H5N1 virus neuraminidase): very low inhibition activity | inhibition at 6.25 µM (H5N1 virus neuraminidase): 1.09 ± 2.99% | inhibition at 12.5 µM (H5N1 virus neuraminidase): 5.75 ± 4.41% | inhibition at 25 µM (H5N1 virus neuraminidase): 2.89 ± 8.39% | inhibition at 50 µM (H5N1 virus neuraminidase): 10.5 ± 16.5% | inhibition at 100 µM (H5N1 virus neuraminidase): 13.3 ± 4.06% | inhibition at 200 µM (H5N1 virus neuraminidase): 15.6 ± 2.97% | inhibition at 400 µM (H5N1 virus neuraminidase): 32 ± 10% | inhibitory effects to the hemagglutination reaction induced by the virus HA1 [4]: had not produced inhibitory effects | Kd (HA protein): 367 µM | CC50 (in vitro): 73.8 ± 0.79 µM

NC(=O)c1ncn([C@@H]2O[C@H](CO)[C@@H](O)[C@H]2O)n1 [ribavirin, reference compound]
IC50 ([1]; Influenza A virus, H5N1, MDCK): 37.2 ± 1.6 µM | CC50 (in vitro): 132 ± 0.87 µM

CC1CCC2(OC1)OC1CC3C4CC(=O)C5CC(OC6OC(CO)C(OC7OC(C)C(O)C(O)C7O)C(O)C6OC6OC(C)C(O)C(O)C6O)CCC5(C)C4CCC3(C)C1C2C (stereo not drawn) [XC-27-1]
IC50 [1]: 16.8 ± 1.45 µM | Inhibition rates to H5N1 virus (%) ([1]; 0.39 µM): 27.54±1.11% | Inhibition rates to H5N1 virus (%) ([1]; 0.78 µM): 31.73±6.04% | Inhibition rates to H5N1 virus (%) ([1]; 1.56 µM): 37.01±4.82% | Inhibition rates to H5N1 virus (%) ([1]; 3.13 µM): 40.85±8.91% | Inhibition rates to H5N1 virus (%) ([1]; 6.25 µM): 46.13±10.59% | Inhibition rates to H5N1 virus (%) ([1]; 12.5 µM): 55.30±3.74% | Inhibition rates to H5N1 virus (%) ([1]; 25 µM): 75.06±10.43% | Inhibition rates to H5N1 virus (%) ([1]; 50 µM): 85.71±5.06% | inhibition at 40 µM (H5N1 virus; [6]): 95% | inhibition at 1.56 µM [3]: 33.6 ± 5.25% | inhibition at 3.13 µM [3]: 38 ± 3.24% | inhibition at 6.25 µM [3]: 40.7 ± 10.9% | inhibition at 12.5 µM [3]: 49 ± 11.7% | inhibition at 25 µM [3]: 60.7 ± 3.73% | inhibition at 50 µM [3]: 64.8 ± 2.96% | inhibition at 100 µM [3]: 78 ± 2.16% | inhibition at 200 µM [3]: 95.3 ± 3.6% | IC50 [3]: 12.8 ± 7.01 µM | inhibitory effects on the VSVG pseudovirus (VSVG pseudovirus): no inhibitory effects | inhibition at 1.56 µM (VSVG pseudovirus): -0.74 ± 6.43% | inhibition at 3.13 µM (VSVG pseudovirus): -1.52 ± 4.89% | inhibition at 6.25 µM (VSVG pseudovirus): -4.3 ± 3.47% | inhibition at 12.5 µM (VSVG pseudovirus): 3.54 ± 4.16% | inhibition at 25 µM (VSVG pseudovirus): 0.83 ± 6.72% | inhibition at 50 µM (VSVG pseudovirus): 3.97 ± 5.2% | inhibition at 100 µM (VSVG pseudovirus): 4.8 ± 4.97% | inhibition at 200 µM (VSVG pseudovirus): 4.75 ± 3.18% | inhibition activity on NA (in words) (H5N1 virus neuraminidase): very low inhibition activity | inhibition at 6.25 µM (H5N1 virus neuraminidase): 6.57 ± 6.89% | inhibition at 12.5 µM (H5N1 virus neuraminidase): 0.18 ± 8.13% | inhibition at 25 µM (H5N1 virus neuraminidase): -6.95 ± 12.7% | inhibition at 50 µM (H5N1 virus neuraminidase): 5.37 ± 14.4% | inhibition at 100 µM (H5N1 virus neuraminidase): 6.45 ± 14.9% | inhibition at 200 µM (H5N1 virus neuraminidase): 7.07 ± 9.83% | inhibition at 400 µM (H5N1 virus neuraminidase): 24.5 ± 8.38% | inhibitory effects to the hemagglutination reaction induced by the virus HA1 [4]: had not produced inhibitory effects | Kd (HA protein): 257 µM | CC50 (MDCK cells): 1247 ± 1.16 µM | in vitro cytotoxicity decreased (fold) than that of XC-27-2 (MDCK cells): 16 fold
